Measurements as given in patent USRE47689E1, “Compounds for treating spinal muscular atrophy” (PTC Therapeutics, Inc., priority 2011, dated 2019).

Legend:
[1] = tested on: SMN2 minigene (full length SMN2 minigene mRNA containing SMN2 exon 7); test: SMN2 minigene mRNA splicing RT-qPCR assay in cultured cells; assay type: cell-based, human; settings: HEK293H cells stably transfected with SMN2-A minigene, 24 hours, 7-point concentration curve, 1.5-fold relative to vehicle-treated cells; for EC (1.5-fold): Homo sapiens, HEK293-H, read-out: EC1.5x for production of full length SMN2 mRNA
Procedure: The reverse transcription-quantitative PCR-based (RT-qPCR) assay is used to quantify the level of the full length SMN2 minigene mRNA containing SMN2 exon 7 in a HEK293H cell line stably transfected with said minigene and treated with a test compound.
Protocol. HEK293H cells stably transfected with the SMN2-A minigene construct described above (10,000 cells/well) are seeded in 200 μL of cell culture medium (DMEM plus 10% FBS, with 200 μg/mL hygromycin) in 96-well flat-bottom plates and the plate is immediately swirled to ensure proper dispersal of cells, forming an even monolayer of cells. Cells are allowed to attach for at least 4-6 hours. […] A solution of test compound (1 μL, 200× in DMSO) is added to each cell-containing well and the plate is incubated for 24 hours in a cell culture incubator (37° C., 5% CO2, 100% relative humidity). 2 replicates are prepared for each test compound concentration. The cells are then lysed in Cells-To-Ct lysis buffer and the lysate is stored at −80° C.
The combination of these three oligonucleotides detects only SMN1 or SMN2 minigenes (RT-qPCR) and will not detect endogenous SMN1 or SMN2 genes.
The SMN forward and reverse primers are used at final concentrations of 0.4 μM.
The SMN2-minigene GAPDH mix (15 μL total volume) is prepared by combining 7.5 μL of 2×RT-PCR buffer, 0.4 μL of 25×RT-PCR enzyme mix, 0.75 μL of 20×GAPDH primer-probe mix, 4.0075 μL of water, 2 μL of 10-fold diluted cell lysate, 0.06 μL of 100 μM SMN forward primer, 0.06 μL of 100 μM SMN reverse primer, and 0.225 μL of 100 μM SMN probe.
PCR is carried out at the following temperatures for the indicated time: Step 1: 48° C. (15 min); Step 2: 95° C. (10 min); Step 3: 95° C. (15 sec); Step 4: 60° C. (1 min); then repeat Steps 3 and 4 for a total of 40 cycles.
Each reaction mixture contains both SMN2-A minigene and GAPDH primers/probe sets (multiplex design), allowing simultaneous measurement of the levels of two transcripts.
Two SMN spliced products are generated from the SMN2 minigene. The first spliced product containing exon 7, corresponding to full length SMN2 mRNA, is called SMN2mini FL. The second one lacking exon 7 is called SMN2mini Δ7.
The amplification efficiency E is calculated from the slope of the amplification curve for SMN2mini FL and GAPDH individually. The abundances of SMN2mini FL and GAPDH are then calculated as […], where Ct is the threshold value for each amplicon. The abundance of SMN2mini FL is normalized to GAPDH abundance. The normalized SMN2mini FL abundance from test compound-treated samples is then divided by normalized SMN2mini FL abundance from vehicle-treated cells to determine the level of SMN2 FL mRNA relative to vehicle control.
An EC1.5x for production of full length SMN2 mRNA between >3 μM and ≤30 μM is indicated by one star (*), an EC1.5x between >1 μM and ≤3 μM is indicated by two stars (**), an EC1.5x between >0.3 μM and ≤1 μM is indicated by three stars (***), an EC1.5x between >0.1 μM and ≤0.3 μM is indicated by four stars (****) and an EC1.5x≤0.1 μM is indicated by five stars (*****).

Smn protein = Smn protein assay in cultured cells (SMN HTRF); assay type: cell-based, human; settings: 48 hours; for maximum fold (Fold) increase of Smn protein: SMA patient fibroblast cells, 7-point concentration data, fold increase relative to vehicle control (SMN HTRF); for EC1.5x (concentration giving 1.5-fold Smn protein increase): SMA Type 1 patient fibroblast cells (GM03813), 7-point concentration curve, SMN HTRF, concentration producing 1.5 times Smn protein vs DMSO vehicle control, read-out: EC1.5x for Smn protein expression
Procedure: The SMN HTRF (homogeneous time resolved fluorescence) assay is used to quantify the level of Smn protein in SMA patient fibroblast cells treated with test compounds.
Protocol. Cells are thawed and cultured in DMEM-10% FBS for 72 hours. Cells are trypsinized, counted and resuspended to a concentration of 25,000 cells/mL in DMEM-10% FBS. […] 1 μL of test compound solution is transferred to cell-containing wells and cells are incubated for 48 hours in a cell culture incubator (37° C., 5% CO2, 100% relative humidity). Triplicate samples are set up for each test compound concentration. After 48 hours, the supernatant is removed from the wells and 25 μL of the RIPA lysis buffer, containing protease inhibitors, is added to the wells and incubated with shaking at room temperature for 1 hour. 25 μL of the diluent is added and then 35 μL of the resulting lysate is transferred to a 384-well plate, where each well contains 5 μL of the antibody solution (1:100 dilution of anti-SMN d2 and anti-SMN kryptate in SMN reconstitution buffer). The plate is centrifuged for 1 minute to bring the solution to the bottom of the wells, then incubated overnight at room temperature. Fluorescence for each well of the plate at 665 nm and 620 nm is measured on an EnVision multilabel plate reader (Perkin-Elmer).
The normalized fluorescence signal is calculated for each sample, Blank and vehicle control well by dividing the signal at 665 nm by the signal at 620 nm. Normalizing the signal accounts for possible fluorescence quenching due to the matrix effect of the lysate. The ΔF value (a measurement of Smn protein abundance) for each sample well is calculated by subtracting the normalized average fluorescence for the Blank control wells from the normalized fluorescence for each sample well and then dividing this difference by the normalized average fluorescence for the Blank control wells. The resulting ΔF value for each sample well represents the Smn protein abundance from test compound-treated samples. The ΔF value for each sample well is divided by the ΔF value for the vehicle control wells to calculate the fold increase in Smn protein abundance relative to the vehicle control.
An EC1.5x for Smn protein expression between >3 μM and ≤10 μM is indicated by one star (*), an EC1.5x between >1 and ≤3 μM is indicated by two stars (**), an EC1.5x between >0.3 μM and ≤1 μM is indicated by three stars (***) and an EC1.5x≤0.3 μM is indicated by four stars (****).

Compound | EC (1.5-fold) [1] [µM] | maximum fold (Fold) increase of Smn protein (Smn protein) | EC1.5x (concentration giving 1.5-fold Smn protein increase) (Smn protein) [nM] | EC1.5x for production of full length SMN2 mRNA [1]
Cc1cc2sc(-c3cc4ccc(N5CCN(C)CC5)cc4oc3=O)cc2c(C)n1 [Compound 819, 3-(4,6-dimethylthieno[3,2-c]pyridin-2-yl)-7-(4-methylpiperazin-1-yl)-2H-chromen-2-one] | < 0.1 | *** (fold increase between >1.35 and ≤1.5) |  | 
Cc1cn2cc(-c3cc4ccc(N5CCN[C@H](C)C5)cc4oc3=O)nc2c(C)n1 [Cpd 536, 3-(6,8-dimethylimidazo[1,2-a]pyrazin-2-yl)-7-[(3R)-3-methylpiperazin-1-yl]-2H-chromen-2-one] | < 0.1 | ***** (fold increase >1.65) | < 300 | 
Cc1cn2cc(-c3cc4ccc(N5CCN[C@@H](C)C5)cc4oc3=O)nc2c(C)n1 [Compound 537, 3-(6,8-dimethylimidazo[1,2-a]pyrazin-2-yl)-7-[(3S)-3-methylpiperazin-1-yl]-2H-chromen-2-one] | < 0.1 | ***** (fold increase >1.65) | < 300 | 
Cc1cn2cc(-c3cc4ccc(N5C[C@@H](C)N[C@@H](C)C5)cc4oc3=O)nc2c(C)n1 [Compound 517, 3-(6,8-dimethylimidazo[1,2-a]pyrazin-2-yl)-7-[(3R,5S)-3,5-dimethylpiperazin-1-yl]-2H-chromen-2-one] | < 0.1 | ***** (fold increase >1.65) | < 300 | 
Cc1nc(Cl)cn2cc(-c3cc4ccc(N5C[C@@H]6C[C@H]5CN6)cc4oc3=O)nc12 [Compound 780, 3-(6-chloro-8-methylimidazo[1,2-a]pyrazin-2-yl)-7-[(1S,4S)-2,5-diazabicyclo[2.2.1]hept-2-yl]-2H-chromen-2-one] | < 0.1 | **** (fold increase between >1.5 and ≤1.65) | < 300 | 
CN(C)[C@H]1[C@@H]2CN(c3ccc4cc(-c5cn6cccnc6n5)c(=O)oc4c3)C[C@@H]21 [Compound 439, 7-[(1R,5S,6s)-6-(dimethylamino)-3-azabicyclo[3.1.0]hex-3-yl]-3-(imidazo[1,2-a]pyrimidin-2-yl)-2H-chromen-2-one] |  | ** (fold increase between >1.2 and ≤1.35) |  | * (between >3 μM and ≤30 μM)
C[C@@H]1CN(c2ccc3cc(-c4cn5ccccc5n4)c(=O)oc3c2)C[C@H](C)N1C [Compound 140, 3-(imidazo[1,2-a]pyridin-2-yl)-7-[(3R,5S)-3,4,5-trimethylpiperazin-1-yl]-2H-chromen-2-one] | 0.3 to 1 | ** (fold increase between >1.2 and ≤1.35) |  | 
O=c1oc2cc(N3CCNCC3)ccc2cc1-c1cn2cc(Cl)ccc2n1 [Compound 71, 3-(6-chloroimidazo[1,2-a]pyridin-2-yl)-7-(piperazin-1-yl)-2H-chromen-2-one] | 1 to 3 | ** (fold increase between >1.2 and ≤1.35) |  | 
Cl.O=c1oc2cc(C3CCNCC3)ccc2cc1-c1nc2c(Cl)cccc2s1 [Cpd 18, 3-(4-chloro-1,3-benzothiazol-2-yl)-7-(piperidin-4-yl)-2H-chromen-2-one hydrochloride] | 0.3 to 1 | * (maximum fold increase of ≤1.2) |  | 
Cc1ccn2cc(-c3cc4ccc(N5CCN(C)CC5)cc4oc3=O)nc2n1 [Compound 224, 3-(7-methylimidazo[1,2-a]pyrimidin-2-yl)-7-(4-methylpiperazin-1-yl)-2H-chromen-2-one] | 0.3 to 1 | * (maximum fold increase of ≤1.2) |  | 
Cc1cn2cc(-c3cc4ccc(N5CCN[C@@H](C(C)C)C5)cc4oc3=O)nc2c(C)n1 [Compound 808, 3-(6,8-dimethylimidazo[1,2-a]pyrazin-2-yl)-7-[(3S)-3-(propan-2-yl)piperazin-1-yl]-2H-chromen-2-one] | < 0.1 | **** (fold increase between >1.5 and ≤1.65) | < 300 | 
O=c1oc2cc(N3CCN4CCC[C@H]4C3)ccc2cc1-c1ccc2nccn2c1 [Compound 979, 7-[(8aS)-hexahydropyrrolo[1,2-a]pyrazin-2(1H)-yl]-3-(imidazo[1,2-a]pyridin-6-yl)-2H-chromen-2-one] | 1 to 3 | ** (fold increase between >1.2 and ≤1.35) |  | 
COCCN1CCN(c2ccc3cc(-c4cc5c(C)nc(C)cc5s4)c(=O)oc3c2)CC1 [Compound 820, 3-(4,6-dimethylthieno[3,2-c]pyridin-2-yl)-7-[4-(2-methoxyethyl)piperazin-1-yl]-2H-chromen-2-one] | 0.3 to 1 | ** (fold increase between >1.2 and ≤1.35) |  | 
CN1CCN(C(=O)c2ccc3cc(-c4nc5c(Cl)cccc5s4)c(=O)oc3c2)CC1 [Cpd 28, 3-(4-chloro-1,3-benzothiazol-2-yl)-7-[(4-methylpiperazin-1-yl)carbonyl]-2H-chromen-2-one] | 3 to 30 | * (maximum fold increase of ≤1.2) |  | 
Cc1cc2cc(-c3cc4ccc(N5CCN(C6CC6)CC5)cc4oc3=O)oc2c(C)n1 [Compound 798, 7-(4-cyclopropylpiperazin-1-yl)-3-(5,7-dimethylfuro[2,3-c]pyridin-2-yl)-2H-chromen-2-one] | 0.1 to 0.3 | **** (fold increase between >1.5 and ≤1.65) | 300 to 1000 | 
Cc1cn2cc(-c3cc4ccc(N5CC(CN)C5)cc4oc3=O)nc2c(C)n1 [Compound 963, 7-[3-(aminomethyl)azetidin-1-yl]-3-(6,8-dimethylimidazo[1,2-a]pyrazin-2-yl)-2H-chromen-2-one] | 0.3 to 1 | *** (fold increase between >1.35 and ≤1.5) |  | 
